In ChEMBL document CHEMBL1201862, “PubChem BioAssay data set” (2004):
Activity calls are given as the source filed them.

Columns and labels:
[1] = target: T1, High affinity choline transporter 1 (Homo sapiens, UniProt Q9GZV3); assay: human choline transporter potentiators, potency – cell-based, 10-point CRC, membrane potential dye, dose response (AID 602376); type: functional
T1 sequence (Q9GZV3 whole entry): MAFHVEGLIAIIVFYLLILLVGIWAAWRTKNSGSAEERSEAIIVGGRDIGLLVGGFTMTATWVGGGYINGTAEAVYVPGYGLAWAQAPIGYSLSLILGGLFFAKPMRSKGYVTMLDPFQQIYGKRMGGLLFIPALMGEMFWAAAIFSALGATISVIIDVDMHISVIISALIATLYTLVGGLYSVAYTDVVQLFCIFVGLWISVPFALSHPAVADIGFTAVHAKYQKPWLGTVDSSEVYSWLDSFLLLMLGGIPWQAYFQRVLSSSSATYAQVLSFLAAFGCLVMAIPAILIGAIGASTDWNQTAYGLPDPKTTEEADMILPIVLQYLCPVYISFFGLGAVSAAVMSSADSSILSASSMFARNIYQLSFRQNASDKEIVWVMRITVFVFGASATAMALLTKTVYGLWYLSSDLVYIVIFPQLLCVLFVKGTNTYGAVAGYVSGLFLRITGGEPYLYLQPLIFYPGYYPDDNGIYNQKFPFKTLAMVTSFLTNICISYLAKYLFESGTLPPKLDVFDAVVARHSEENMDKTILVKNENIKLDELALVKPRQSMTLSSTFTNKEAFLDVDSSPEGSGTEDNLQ

Troponin, cardiac muscle = Troponin, cardiac muscle (Homo sapiens, UniProt P19429+P45379+P63316); assay: Fluorescence-based biochemical high throughput dose response assay for activators of the calcium sensitivity of cardiac Regulated Thin Filaments (RTF). [Related pubchem assays (depositor defined):AID493008, AID493018, AID504382, AID504383]; type: protein-complex assay
[2] = viability loss in Vero cells – cell-based, purified and synthesized samples, set 8, cytotoxicity control for M. tuberculosis inhibitor project (AID 602431); type: functional; details: Mycobacterium tuberculosis
[3] = THP-1 cell cytotoxicity, cytotoxicity control, set 6 (AID 602433); type: functional; details: Mycobacterium tuberculosis
[4] = target: T2, Endoribonuclease toxin MazF (Escherichia coli K-12, UniProt P0AE70); assay: substrate-only fluorescence increase artefacts – biochemical, single-stranded RNase substrate, counter-screen for MazEF activator project, dose response (AID 588502); type: functional
T2 sequence (P0AE70 whole entry): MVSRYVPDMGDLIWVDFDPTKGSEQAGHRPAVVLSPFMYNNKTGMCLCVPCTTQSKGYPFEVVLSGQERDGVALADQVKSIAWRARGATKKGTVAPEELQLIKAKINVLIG

[5] = target: T2, Endoribonuclease toxin MazF; assay: MazEF toxin-antitoxin RNase activation – biochemical, fluorescence, single-stranded RNA substrate, SAR follow-up (AID 588603); type: functional
[6] = target: T2, Endoribonuclease toxin MazF; assay: SAR analysis of small molecule activators of the MazEF TA System via a fluorescence-based single-stranded RNase assay counterscreen. [Related pubchem assays (depositor defined):AID504720, AID504743]; type: functional
[7] = target: T2, Endoribonuclease toxin MazF; assay: activation of MazEF endoribonuclease cleavage – biochemical, fluorescence, single-stranded RNA substrate, uHTS hits, dose response (AID 588481); type: functional
MEF = assay: SAR analysis of small molecule cytotoxicity of MazEF TA System activators in embryonic fibroblast (MEF) cells. [Related pubchem assays (depositor defined):AID504720, AID504743]; type: functional; details: Mus musculus
CHO = CHO cell viability loss, potency – luminescence, cytotoxicity control for TLR9-MyD88 binding inhibitor project, dose response (AID 588339); type: functional, cell-based, hamster; details: Cricetulus griseus;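 note: CHO cells stably coexpressing TLR9 and MyD88 fusions from primary screen; compound exposure lasted 48 hours before viability readout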
Beta Lactamase = Beta Lactamase (Pseudomonas aeruginosa, UniProt Q932Y6); assay: BLA reporter interference, concentration series – BLA reporter cells, FRET fluorescence, artefact control for TLR9-MyD88 binding inhibitor project, dose response (AID 588341); type: cell-based;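 note: cell based assay in CHO-K1 cells stably expressing beta-lactamase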
Beta Lactamase, sequence (Q932Y6 whole entry): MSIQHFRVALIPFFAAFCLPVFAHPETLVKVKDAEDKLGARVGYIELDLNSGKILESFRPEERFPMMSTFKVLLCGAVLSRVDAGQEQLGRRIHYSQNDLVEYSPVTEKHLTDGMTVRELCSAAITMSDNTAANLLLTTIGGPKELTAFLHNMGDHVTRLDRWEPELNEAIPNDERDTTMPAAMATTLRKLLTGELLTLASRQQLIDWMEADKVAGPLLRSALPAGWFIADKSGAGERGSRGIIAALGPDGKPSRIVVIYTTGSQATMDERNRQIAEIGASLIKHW

Caspase-3 = target: T3, Caspase-3 (Homo sapiens, UniProt P42574); assay: SAR Analysis of small molecule inhibitors of Sentrin-specific proteases (SENPs) using a Caspase-3 Selectivity assay. [Related pubchem assays (depositor defined):AID2540, AID2599, AID434973, AID489001]; type: functional
T3 sequence (P42574 whole entry): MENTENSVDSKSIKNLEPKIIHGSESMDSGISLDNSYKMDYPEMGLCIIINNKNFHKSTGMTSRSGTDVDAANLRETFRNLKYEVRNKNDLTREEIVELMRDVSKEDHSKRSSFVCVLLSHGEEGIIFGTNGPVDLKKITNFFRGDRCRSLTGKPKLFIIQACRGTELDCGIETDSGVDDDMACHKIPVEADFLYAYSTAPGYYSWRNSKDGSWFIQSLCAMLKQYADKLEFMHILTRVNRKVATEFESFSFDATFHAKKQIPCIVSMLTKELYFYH

[8] = target: T4, Sentrin-specific protease 7 (Homo sapiens, UniProt Q9BQF6); assay: inhibition of human SENP7 cleavage activity – biochemical, luminescence, SAR follow-up (AID 504497); type: functional
T4 sequence (Q9BQF6 whole entry): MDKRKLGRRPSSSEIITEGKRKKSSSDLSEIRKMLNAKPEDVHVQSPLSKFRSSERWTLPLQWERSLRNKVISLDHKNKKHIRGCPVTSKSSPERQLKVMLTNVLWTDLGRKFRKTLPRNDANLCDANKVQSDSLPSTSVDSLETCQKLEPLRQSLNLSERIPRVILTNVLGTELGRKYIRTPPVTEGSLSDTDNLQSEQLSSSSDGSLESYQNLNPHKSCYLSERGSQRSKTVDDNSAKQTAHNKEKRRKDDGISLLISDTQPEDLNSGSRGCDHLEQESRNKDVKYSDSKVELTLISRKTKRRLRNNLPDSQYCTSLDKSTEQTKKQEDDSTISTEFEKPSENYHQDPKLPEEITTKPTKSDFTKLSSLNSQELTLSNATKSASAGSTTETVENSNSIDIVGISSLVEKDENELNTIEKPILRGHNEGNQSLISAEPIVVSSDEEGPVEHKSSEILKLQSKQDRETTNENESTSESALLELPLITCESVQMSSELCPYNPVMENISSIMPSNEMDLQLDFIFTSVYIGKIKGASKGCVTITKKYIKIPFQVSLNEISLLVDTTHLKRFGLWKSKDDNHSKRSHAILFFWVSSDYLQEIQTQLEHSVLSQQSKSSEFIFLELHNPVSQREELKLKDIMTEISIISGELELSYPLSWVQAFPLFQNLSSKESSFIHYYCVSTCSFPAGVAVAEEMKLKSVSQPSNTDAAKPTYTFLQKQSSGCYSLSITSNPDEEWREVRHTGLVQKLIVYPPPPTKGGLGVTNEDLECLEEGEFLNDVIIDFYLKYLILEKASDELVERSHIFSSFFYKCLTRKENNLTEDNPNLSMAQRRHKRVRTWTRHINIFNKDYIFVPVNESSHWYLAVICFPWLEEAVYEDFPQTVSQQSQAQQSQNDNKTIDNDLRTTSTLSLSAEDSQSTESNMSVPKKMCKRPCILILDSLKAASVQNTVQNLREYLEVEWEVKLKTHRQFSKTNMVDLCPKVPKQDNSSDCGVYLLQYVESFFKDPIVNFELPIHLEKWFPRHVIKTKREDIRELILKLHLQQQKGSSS

[9] = target: T5, Sentrin-specific protease 8 (Homo sapiens, UniProt Q96LD8); assay: inhibition of human SENP8 cleavage activity – biochemical, luminescence, SAR follow-up (AID 504501); type: functional
T5 sequence (Q96LD8 whole entry): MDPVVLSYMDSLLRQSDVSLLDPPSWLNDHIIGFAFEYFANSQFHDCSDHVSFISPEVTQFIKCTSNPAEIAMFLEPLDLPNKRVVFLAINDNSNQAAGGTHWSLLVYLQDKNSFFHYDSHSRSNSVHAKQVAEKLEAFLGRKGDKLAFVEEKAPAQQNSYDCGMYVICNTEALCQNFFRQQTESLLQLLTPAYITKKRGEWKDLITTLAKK

[10] = target: T6, Sentrin-specific protease 6 (Homo sapiens, UniProt Q9GZR1); assay: SAR Analysis of small molecule inhibitors of Sentrin-specific protease 6 (SENP6) using a Luminescent assay. [Related pubchem assays (depositor defined):AID2582, AID2599]; type: functional
T6 sequence (Q9GZR1 whole entry): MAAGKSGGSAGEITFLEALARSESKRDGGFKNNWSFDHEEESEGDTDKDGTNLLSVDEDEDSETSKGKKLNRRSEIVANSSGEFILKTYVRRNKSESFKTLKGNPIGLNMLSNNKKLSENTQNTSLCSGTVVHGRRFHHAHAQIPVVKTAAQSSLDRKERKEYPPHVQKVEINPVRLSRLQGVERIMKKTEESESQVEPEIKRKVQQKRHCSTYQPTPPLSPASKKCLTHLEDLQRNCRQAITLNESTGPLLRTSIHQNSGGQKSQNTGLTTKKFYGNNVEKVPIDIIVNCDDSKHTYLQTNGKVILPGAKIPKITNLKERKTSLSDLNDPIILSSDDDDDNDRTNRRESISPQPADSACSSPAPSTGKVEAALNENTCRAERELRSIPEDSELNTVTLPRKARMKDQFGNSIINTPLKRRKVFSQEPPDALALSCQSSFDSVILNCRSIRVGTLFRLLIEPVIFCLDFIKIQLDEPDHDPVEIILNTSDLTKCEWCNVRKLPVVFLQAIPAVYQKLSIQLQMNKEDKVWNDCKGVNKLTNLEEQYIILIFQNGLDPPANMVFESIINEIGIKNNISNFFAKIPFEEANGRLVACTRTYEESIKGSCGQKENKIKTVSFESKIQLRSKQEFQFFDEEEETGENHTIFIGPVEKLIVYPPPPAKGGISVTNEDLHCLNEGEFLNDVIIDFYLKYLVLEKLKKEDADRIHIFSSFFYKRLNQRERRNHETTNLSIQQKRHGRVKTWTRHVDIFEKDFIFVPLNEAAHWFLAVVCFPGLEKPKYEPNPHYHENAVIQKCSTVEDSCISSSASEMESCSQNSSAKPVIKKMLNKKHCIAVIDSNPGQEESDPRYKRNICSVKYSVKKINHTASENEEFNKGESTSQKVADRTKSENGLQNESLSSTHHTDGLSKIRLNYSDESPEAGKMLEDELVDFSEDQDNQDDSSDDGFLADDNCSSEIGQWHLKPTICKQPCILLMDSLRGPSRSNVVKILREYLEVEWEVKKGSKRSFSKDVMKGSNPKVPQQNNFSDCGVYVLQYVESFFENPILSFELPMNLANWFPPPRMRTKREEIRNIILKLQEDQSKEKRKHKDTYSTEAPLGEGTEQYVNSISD

[11] = target: DNA dC->dU-editing enzyme APOBEC-3A (Homo sapiens, UniProt P31941); assay: SAR analysis of small molecule inhibitors of APOBEC3A DNA Deaminase via a fluorescence-based single-stranded DNA deaminase assay.; type: functional; details: read-out: IC50_Mean
DNA dC->dU-editing enzyme APOBEC-3A, sequence (P31941 whole entry): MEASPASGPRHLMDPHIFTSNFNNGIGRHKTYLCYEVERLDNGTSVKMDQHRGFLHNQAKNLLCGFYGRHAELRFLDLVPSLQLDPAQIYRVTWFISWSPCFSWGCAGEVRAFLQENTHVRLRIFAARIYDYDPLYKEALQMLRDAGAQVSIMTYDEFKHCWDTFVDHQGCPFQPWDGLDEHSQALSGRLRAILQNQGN

[12] = target: DNA dC->dU-editing enzyme APOBEC-3G (Homo sapiens, UniProt Q9HC16); assay: inhibition of APOBEC3G ssDNA deamination – biochemical, fluorescence, single-stranded DNA substrate, SAR follow-up (AID 602136); type: functional; details: read-out: IC50_Mean
DNA dC->dU-editing enzyme APOBEC-3G, sequence (Q9HC16 whole entry): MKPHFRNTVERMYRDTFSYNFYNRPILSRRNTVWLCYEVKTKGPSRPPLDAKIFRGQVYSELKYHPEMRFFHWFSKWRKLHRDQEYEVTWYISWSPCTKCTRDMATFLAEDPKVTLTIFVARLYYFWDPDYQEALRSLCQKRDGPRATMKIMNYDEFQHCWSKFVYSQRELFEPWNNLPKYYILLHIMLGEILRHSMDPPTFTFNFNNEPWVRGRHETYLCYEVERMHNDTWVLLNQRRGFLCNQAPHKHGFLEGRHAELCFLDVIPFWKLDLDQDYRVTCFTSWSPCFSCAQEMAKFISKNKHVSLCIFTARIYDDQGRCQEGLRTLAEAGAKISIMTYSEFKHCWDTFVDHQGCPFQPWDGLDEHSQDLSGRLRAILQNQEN

[13] = target: T7, Orexin/Hypocretin receptor type 1 (Homo sapiens, UniProt O43613); assay: (§1) Fluorescence-based cell-based high throughput dose response assay for antagonists of the orexin 1 receptor (OX1R; HCRTR1). [Related pubchem assays (depositor defined):AID434989, AID435008, AID463079, AID485270, AID492963, AID492964, AID492965, AID493232, AID504717, AID504718]; type: functional
T7 sequence (O43613 whole entry): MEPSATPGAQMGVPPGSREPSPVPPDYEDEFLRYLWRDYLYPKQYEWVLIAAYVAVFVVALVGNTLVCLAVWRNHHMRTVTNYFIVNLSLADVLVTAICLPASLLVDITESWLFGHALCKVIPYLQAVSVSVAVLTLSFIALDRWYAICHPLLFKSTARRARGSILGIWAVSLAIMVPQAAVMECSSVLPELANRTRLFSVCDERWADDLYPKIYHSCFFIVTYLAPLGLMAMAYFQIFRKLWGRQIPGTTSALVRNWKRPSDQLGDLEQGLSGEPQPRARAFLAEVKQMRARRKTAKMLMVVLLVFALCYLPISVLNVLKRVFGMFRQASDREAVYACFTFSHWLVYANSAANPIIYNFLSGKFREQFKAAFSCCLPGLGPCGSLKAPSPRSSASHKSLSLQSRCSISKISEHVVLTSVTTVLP

[14] = (§2) Counterscreen for antagonists of the orexin 1 receptor (OX1R; HCRTR1): Fluorescence-based cell-based high throughput dose response assay to identify antagonists of the parental CHO cell line. [Related pubchem assays (depositor defined):AID434989, AID435008, AID463079, AID485270, AID492963, AID492964, AID492965, AID493232, AID504699, AID504701]; type: functional
[15] = target: T7, Orexin/Hypocretin receptor type 1; assay: as §1, with “Homogeneous Time Resolved Fluorescence (HTRF)-based” for “Fluorescence-based”; type: functional
CHO-K1 = assay: as §2, with “Homogeneous time resolved fluorescence (HTRF)-based” for “Fluorescence-based”, “cell-based” for “cell-based high throughput”, “CHO-K1” for “CHO”; type: functional; details: Cricetulus griseus;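 note: potency for inhibition of ATP-stimulated IP1 production as antagonists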
Orexin receptor type 2 [16] = target: T8, Orexin receptor type 2 (Homo sapiens, UniProt O43614); assay: Counterscreen assay for antagonists of the orexin 1 receptor (OX1R; HCRTR1): Homogeneous Time Resolved Fluorescence (HTRF)-based cell-based dose response assay for antagonists of the orexin 2 receptor (OX2R; HCRTR2), run by assay provider.; type: functional
T8 sequence (O43614 whole entry): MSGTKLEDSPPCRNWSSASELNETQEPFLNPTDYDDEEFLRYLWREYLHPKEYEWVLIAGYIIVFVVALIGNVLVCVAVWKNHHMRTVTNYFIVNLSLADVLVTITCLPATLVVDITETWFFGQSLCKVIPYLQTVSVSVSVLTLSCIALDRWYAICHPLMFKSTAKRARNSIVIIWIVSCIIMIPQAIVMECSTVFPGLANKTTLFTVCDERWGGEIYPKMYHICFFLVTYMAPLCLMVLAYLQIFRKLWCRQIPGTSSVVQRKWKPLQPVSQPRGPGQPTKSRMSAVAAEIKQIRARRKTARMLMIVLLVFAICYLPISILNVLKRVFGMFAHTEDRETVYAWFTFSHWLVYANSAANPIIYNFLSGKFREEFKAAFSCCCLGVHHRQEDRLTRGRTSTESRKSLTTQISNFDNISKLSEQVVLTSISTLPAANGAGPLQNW

Orexin receptor type 2 [17] = target: T8, Orexin receptor type 2; assay: Counterscreen assay for antagonists of the orexin 1 receptor (OX1R; HCRTR1): Fluorescence-based cell-based dose response assay for antagonists of the orexin 2 receptor (OX2R; HCRTR2), run by assay provider.; type: functional

CC(C)CN1CCN(Cc2cccn2-c2ccc(Cl)cn2)CC1CCO (stereo not drawn)
EC50 [1]: 8.24 µM (active) | EC50 (Troponin, cardiac muscle): > 71.5 µM (inactive)

CC1CCCN(c2c(NCc3ccc(C(=O)N4CC=C(c5ccccc5)CC4)cc3)c(=O)c2=O)C1 (stereo not drawn)
CC50 [2]: 67.2 µM (active) | CC50 [3]: 17.4 µM (active)

N=c1c2c(ncn1CCCO)Oc1cc(O)ccc1C2c1ccccc1 (stereo not drawn)
EC50 [4]: > 99 µM (inactive) | EC50 [5]: 6.2 µM (active) | EC50 [6]: 78.8 µM (inactive) | EC50 [7]: 6.82 µM (active) | CC50 (MEF): > 99 µM (inactive)

CCN(CC)c1ccc(/C=C/C(=O)C2C(=O)C=C(C)OC2=O)cc1 (stereo not drawn)
IC50 (CHO): > 49.7 µM (inactive) | IC50 (Beta Lactamase): 4.88 µM (active)

Oc1ccc(Cl)cc1/C=N/Nc1cc(N2CCCC2)nc(N2CCCC2)n1
IC50 (Caspase-3): > 99 µM (inactive) | IC50 [8]: > 99 µM (inactive) | IC50 [9]: > 99 µM (inactive) | IC50 [10]: > 99 µM (inactive)

O=C(CCN1CCSC1=O)Nc1cc(Cl)ccc1N1CCOCC1
IC50 [11]: > 99 µM (inactive) | IC50 [12]: > 99 µM (inactive)

CCOc1ccccc1N1CCN(C(=O)c2ccc(S(=O)(=O)Nc3ccccc3)cc2)CC1
IC50 [13]: 15.1 µM (inactive) | IC50 [14]: 25.6 µM (inactive) | IC50 [15]: 1.12 µM (active) | IC50 (CHO-K1): > 66.2 µM (inactive) | IC50 (Orexin receptor type 2 [16]): > 50 µM (inactive) | IC50 (Orexin receptor type 2 [17]): 42.5 µM (inactive)
